From ChEMBL document CHEMBL2034905, “Synthesis of benzimidazolyl-1,3,4-oxadiazol-2ylthio-N-phenyl (benzothiazolyl) acetamides as antibacterial, antifungal and antituberculosis agents” (Eur J Med Chem, 2012)
Values after ≈ are worked out from the molar mass of the structure shown.

Columns and labels:
[1] = system: Mycobacterium tuberculosis; experiment: Antituberculosis activity against Mycobacterium tuberculosis H37Rv by Lowenstein-Jensen method; type: functional
[2] = system: Mycobacterium tuberculosis; experiment: Antituberculosis activity against Mycobacterium tuberculosis H37Rv at 6.25 ug/ml by Lowenstein-Jensen method; type: functional
[3] = Lipophilicity, log P of the compound; type: physicochemical; details: octanol/water
Staphylococcus aureus [4] = experiment: Antibacterial activity against Staphylococcus aureus MTCC 96 at 100 ug/disc by paper disc diffusion technique; type: functional; details: read-out: IZ
Bacillus cereus [5] = experiment: Antibacterial activity against Bacillus cereus MTCC 430 at 100 ug/disc by paper disc diffusion technique; type: functional; details: read-out: IZ
Escherichia coli [6] = experiment: Antibacterial activity against Escherichia coli MTCC 739 at 100 ug/disc by paper disc diffusion technique; type: functional; details: read-out: IZ
Pseudomonas aeruginosa [7] = experiment: Antibacterial activity against Pseudomonas aeruginosa MTCC 741 at 100 ug/disc by paper disc diffusion technique; type: functional; details: read-out: IZ
Klebsiella pneumoniae [8] = experiment: Antibacterial activity against Klebsiella pneumoniae MTCC 109 at 100 ug/disc by paper disc diffusion technique; type: functional; details: read-out: IZ
Salmonella typhi [9] = experiment: Antibacterial activity against Salmonella typhi MTCC 733 at 100 ug/disc by paper disc diffusion technique; type: functional, Salmonella enterica subsp. enterica serovar Typhi; details: Salmonella enterica, read-out: IZ
Proteus vulgaris [10] = experiment: Antibacterial activity against Proteus vulgaris MTCC 1771 at 100 ug/disc by paper disc diffusion technique; type: functional; details: read-out: IZ
Shigella flexneri [11] = experiment: Antibacterial activity against Shigella flexneri MTCC 1457 at 100 ug/disc by paper disc diffusion technique; type: functional; details: read-out: IZ
Staphylococcus aureus [12] = experiment: Antibacterial activity against Staphylococcus aureus MTCC 96 by agar streak dilution method; type: functional
Bacillus cereus [13] = experiment: Antibacterial activity against Bacillus cereus MTCC 430 by agar streak dilution method; type: functional
Escherichia coli [14] = experiment: Antibacterial activity against Escherichia coli MTCC 739 by agar streak dilution method; type: functional
Pseudomonas aeruginosa [15] = experiment: Antibacterial activity against Pseudomonas aeruginosa MTCC 741 by agar streak dilution method; type: functional
Klebsiella pneumoniae [16] = experiment: Antibacterial activity against Klebsiella pneumoniae MTCC 109 by agar streak dilution method; type: functional
Salmonella typhi [17] = experiment: Antibacterial activity against Salmonella typhi MTCC 733 by agar streak dilution method; type: functional, Salmonella enterica subsp. enterica serovar Typhi; details: Salmonella enterica
Proteus vulgaris [18] = experiment: Antibacterial activity against Proteus vulgaris MTCC 1771 by agar streak dilution method; type: functional
Shigella flexneri [19] = experiment: Antibacterial activity against Shigella flexneri MTCC 1457 by agar streak dilution method; type: functional
Aspergillus niger [20] = experiment: Antifungal activity against Aspergillus niger MTCC 282 at 100 ug/disc by paper disc diffusion technique; type: functional; details: read-out: IZ
Aspergillus fumigatus [21] = experiment: Antifungal activity against Aspergillus fumigatus MTCC 343 at 100 ug/disc by paper disc diffusion technique; type: functional; details: read-out: IZ
Aspergillus clavatus [22] = experiment: Antifungal activity against Aspergillus clavatus MTCC 1323 at 100 ug/disc by paper disc diffusion technique; type: functional; details: read-out: IZ
Candida albicans [23] = experiment: Antifungal activity against Candida albicans MTCC 183 at 100 ug/disc by paper disc diffusion technique; type: functional; details: read-out: IZ
Aspergillus niger [24] = experiment: Antifungal activity against Aspergillus niger MTCC 282 by agar streak dilution method; type: functional
Aspergillus fumigatus [25] = experiment: Antifungal activity against Aspergillus fumigatus MTCC 343 by agar streak dilution method; type: functional
Aspergillus clavatus [26] = experiment: Antifungal activity against Aspergillus clavatus MTCC 1323 by agar streak dilution method; type: functional
Candida albicans [27] = experiment: Antifungal activity against Candida albicans MTCC 183 by agar streak dilution method; type: functional
[28] = system: Mycobacterium tuberculosis; experiment: Antituberculosis activity against Mycobacterium tuberculosis H37Rv by BACTEC MGIT method; type: functional

| Structure (SMILES) | MIC [1] | inhibition at 6.25 µg/mL [2] | logP [3] | zone of inhibition at 100 µg/disc (Staphylococcus aureus [4]) | zone of inhibition at 100 µg/disc (Bacillus cereus [5]) | zone of inhibition at 100 µg/disc (Escherichia coli [6]) | zone of inhibition at 100 µg/disc (Pseudomonas aeruginosa [7]) | zone of inhibition at 100 µg/disc (Klebsiella pneumoniae [8]) | zone of inhibition at 100 µg/disc (Salmonella typhi [9]) | zone of inhibition at 100 µg/disc (Proteus vulgaris [10]) | zone of inhibition at 100 µg/disc (Shigella flexneri [11]) | MIC (Staphylococcus aureus [12]) | MIC (Bacillus cereus [13]) | MIC (Escherichia coli [14]) | MIC (Pseudomonas aeruginosa [15]) | MIC (Klebsiella pneumoniae [16]) | MIC (Salmonella typhi [17]) | MIC (Proteus vulgaris [18]) | MIC (Shigella flexneri [19]) | zone of inhibition at 100 µg/disc (Aspergillus niger [20]) | further results |
| --- | --- | --- | --- | --- | --- | --- | --- | --- | --- | --- | --- | --- | --- | --- | --- | --- | --- | --- | --- | --- | --- |
| N#Cc1ccc2nc(NC(=O)CSc3nnc(Cn4cnc5ccccc54)o3)sc2c1 | 100 µg/mL (≈ 223 µM) | 95% | 3.72 | 24 mm | 22 mm | 24 mm | 15 mm | 25 mm | 17 mm | 19 mm | 21 mm | 6.25 µg/mL (≈ 14 µM) | 50 µg/mL (≈ 112 µM) | 25 µg/mL (≈ 55.9 µM) | 50 µg/mL (≈ 112 µM) | 25 µg/mL (≈ 55.9 µM) | 100 µg/mL (≈ 223 µM) | 50 µg/mL (≈ 112 µM) | 50 µg/mL (≈ 112 µM) | 18 mm | zone of inhibition at 100 µg/disc (Aspergillus fumigatus [21]): 22 mm; zone of inhibition at 100 µg/disc (Aspergillus clavatus [22]): 18 mm; zone of inhibition at 100 µg/disc (Candida albicans [23]): 13 mm; MIC (Aspergillus niger [24]): 50 µg/mL (≈ 112 µM); MIC (Aspergillus fumigatus [25]): 50 µg/mL (≈ 112 µM); MIC (Aspergillus clavatus [26]): 100 µg/mL (≈ 223 µM); MIC (Candida albicans [27]): 100 µg/mL (≈ 223 µM); MIC [28]: > 6.25 µg/mL |
| O=C(CSc1nnc(Cn2cnc3ccccc32)o1)Nc1nc2ccc(Br)cc2s1 | 25 µg/mL (≈ 49.9 µM) | 99% | 4.52 | 26 mm | 24 mm | 19 mm | 23 mm | 14 mm | 24 mm | 20 mm | 23 mm | 3.12 µg/mL (≈ 6.22 µM) | 25 µg/mL (≈ 49.9 µM) | 50 µg/mL (≈ 99.7 µM) | 25 µg/mL (≈ 49.9 µM) | 100 µg/mL (≈ 199 µM) | 25 µg/mL (≈ 49.9 µM) | 50 µg/mL (≈ 99.7 µM) | 12.5 µg/mL (≈ 24.9 µM) | 19 mm | zone of inhibition at 100 µg/disc (Aspergillus fumigatus [21]): 21 mm; zone of inhibition at 100 µg/disc (Aspergillus clavatus [22]): 20 mm; zone of inhibition at 100 µg/disc (Candida albicans [23]): 17 mm; MIC (Aspergillus niger [24]): 50 µg/mL (≈ 99.7 µM); MIC (Aspergillus fumigatus [25]): 50 µg/mL (≈ 99.7 µM); MIC (Aspergillus clavatus [26]): 50 µg/mL (≈ 99.7 µM); MIC (Candida albicans [27]): 100 µg/mL (≈ 199 µM); MIC [28]: > 6.25 µg/mL |
| CC(=O)Nc1ccc2nc(NC(=O)CSc3nnc(Cn4cnc5ccccc54)o3)sc2c1 | 50 µg/mL (≈ 104 µM) | 98% | 2.6 | 19 mm | 16 mm | 20 mm | < 10 mm | 20 mm | 16 mm | 24 mm | 16 mm | 50 µg/mL (≈ 104 µM) | 100 µg/mL (≈ 209 µM) | 50 µg/mL (≈ 104 µM) | 100 µg/mL (≈ 209 µM) | 50 µg/mL (≈ 104 µM) | 100 µg/mL (≈ 209 µM) | 12.5 µg/mL (≈ 26.1 µM) | 100 µg/mL (≈ 209 µM) | 24 mm | zone of inhibition at 100 µg/disc (Aspergillus fumigatus [21]): < 10 mm; zone of inhibition at 100 µg/disc (Aspergillus clavatus [22]): 23 mm; zone of inhibition at 100 µg/disc (Candida albicans [23]): 23 mm; MIC (Aspergillus niger [24]): 12.5 µg/mL (≈ 26.1 µM); MIC (Aspergillus fumigatus [25]): 100 µg/mL (≈ 209 µM); MIC (Aspergillus clavatus [26]): 50 µg/mL (≈ 104 µM); MIC (Candida albicans [27]): 50 µg/mL (≈ 104 µM); MIC [28]: > 6.25 µg/mL |
| Cc1ccc2nc(NC(=O)CSc3nnc(Cn4cnc5ccccc54)o3)sc2c1 | 200 µg/mL (≈ 458 µM) | 97% | 4.18 | 15 mm | 19 mm | 12 mm | 15 mm | 18 mm | 11 mm | 20 mm | 14 mm | 50 µg/mL (≈ 115 µM) | 50 µg/mL (≈ 115 µM) | 100 µg/mL (≈ 229 µM) | 100 µg/mL (≈ 229 µM) | 100 µg/mL (≈ 229 µM) | 100 µg/mL (≈ 229 µM) | 50 µg/mL (≈ 115 µM) | 100 µg/mL (≈ 229 µM) | 12 mm | zone of inhibition at 100 µg/disc (Aspergillus fumigatus [21]): < 10 mm; zone of inhibition at 100 µg/disc (Aspergillus clavatus [22]): 12 mm; zone of inhibition at 100 µg/disc (Candida albicans [23]): 15 mm; MIC (Aspergillus niger [24]): 100 µg/mL (≈ 229 µM); MIC (Aspergillus fumigatus [25]): 100 µg/mL (≈ 229 µM); MIC (Aspergillus clavatus [26]): 100 µg/mL (≈ 229 µM); MIC (Candida albicans [27]): 100 µg/mL (≈ 229 µM); MIC [28]: > 6.25 µg/mL |
| O=C(CSc1nnc(Cn2cnc3ccccc32)o1)Nc1nc2ccc(I)cc2s1 | 200 µg/mL (≈ 365 µM) | 96% | 5.05 | 22 mm | 23 mm | 15 mm | 14 mm | 14 mm | 16 mm | 26 mm | 22 mm | 12.5 µg/mL (≈ 22.8 µM) | 25 µg/mL (≈ 45.6 µM) | 50 µg/mL (≈ 91.2 µM) | 100 µg/mL (≈ 182 µM) | 100 µg/mL (≈ 182 µM) | 100 µg/mL (≈ 182 µM) | 12.5 µg/mL (≈ 22.8 µM) | 25 µg/mL (≈ 45.6 µM) | 14 mm | zone of inhibition at 100 µg/disc (Aspergillus fumigatus [21]): < 10 mm; zone of inhibition at 100 µg/disc (Aspergillus clavatus [22]): 14 mm; zone of inhibition at 100 µg/disc (Candida albicans [23]): 19 mm; MIC (Aspergillus niger [24]): 100 µg/mL (≈ 182 µM); MIC (Aspergillus fumigatus [25]): 100 µg/mL (≈ 182 µM); MIC (Aspergillus clavatus [26]): 100 µg/mL (≈ 182 µM); MIC (Candida albicans [27]): 100 µg/mL (≈ 182 µM); MIC [28]: > 6.25 µg/mL |
